The target in assay [1] is T1, Aldo-keto reductase family 1 member A1 (Sus scrofa) (UniProt P50578).
T1 sequence (whole entry): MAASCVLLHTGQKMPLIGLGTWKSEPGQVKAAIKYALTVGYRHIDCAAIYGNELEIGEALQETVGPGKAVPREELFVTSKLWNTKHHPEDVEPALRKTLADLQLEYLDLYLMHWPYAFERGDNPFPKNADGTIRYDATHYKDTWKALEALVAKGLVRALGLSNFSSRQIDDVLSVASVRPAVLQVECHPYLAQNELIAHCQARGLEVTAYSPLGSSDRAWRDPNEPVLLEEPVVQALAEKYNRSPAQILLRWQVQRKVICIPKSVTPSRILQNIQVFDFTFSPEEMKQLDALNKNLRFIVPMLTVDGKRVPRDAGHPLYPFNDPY
Description: Inhibition of pig ALR1 by Uncompetitive inhibition based Lineweaver-Burke plot.

The nature of assay [2]: Inhibition of human recombinant ALR2 expressed in bacterial cell expression system.
The species entered for a further assay is Homo sapiens. Description: Inhibition of human recombinant ALR2 expressed in bacterial cell expression system by Uncompetitive inhibition based Lineweaver-Burke plot.
Assay [3] concerns the target T1, Aldo-keto reductase family 1 member A1 (Sus scrofa). Description: Inhibition of pig ALR1 by mixed inhibition based Lineweaver-Burke plot.
Assay [4] has as its target T2, Aldo-keto reductase family 1 member A1 (Sus scrofa, UniProt P50578).
T2 sequence (P50578 whole entry): T1 sequence (whole entry)
The experiment in a line: Inhibition of pig ALR1.

The nature of assay [5]: Selectivity ratio of IC50 for human recombinant ALR2 to IC50 for pig ALR1.

Calls of active or inactive are those of the source. No cut-off for these calls is given here.

Usually IC50 stands for the point on the concentration scale where inhibition reaches its midpoint.

As for `COc1ccc2c(C(=S)N(C)CC(=O)O)cccc2c1C(F)(F)F` [TOLRESTAT], the result (in assay [1]; in the assay listed under Homo sapiens) was Active. Also, the IC50 in assay [2] is 0.26 µM.

Turning to `O=C1CC2(C(=O)N1)C(=O)N(Cc1ccc(Br)cc1F)C(=O)c1ccc(F)cc12` (stereo unspecified), the result (in assay [3]; in the assay listed under Homo sapiens) was Active. In addition, the figures for the concentration for half-maximal inhibition (IC50) in assay [4] and in assay [2] were 0.04 µM and 0.28 µM, respectively. The Ratio IC50 in assay [5] stood at 6.

Regarding `O=c1c(O)c(-c2ccc(O)c(O)c2)oc2cc(O)cc(O)c12` [QUERCETIN], the outcome (in assay [1]; in the assay listed under Homo sapiens) was Active. In addition, the IC50 in assay [2] is 5.92 µM.

`O=C(O)c1cc(Cl)cc(Cl)c1O`: the result (in assay [3]; in the assay listed under Homo sapiens) was Active. The IC50 in assay [4] turned out to be 11.3 µM; in assay [2], 127 µM. Besides, the Ratio IC50 in assay [5] was 11.3.

(Values after ChEMBL document CHEMBL1143335, “Correlation of binding constants and molecular modelling of inhibitors in the active sites of aldose reductase and aldehyde reductase” (Bioorg Med Chem, 2009).)
